From patent publication US10828269B2, “Reducing muscle atrophy by administering astaxanthin” (FUJI CHEMICAL INDUSTRIES CO., LTD., priority 2004, dated 2020)

Experiments:
Test in all cases: GeneChip gene expression in renal glomerulus
Assay type in all cases: in vivo, mouse
[1] = system: isocitrate dehydrogenase 1 (NADP+), soluble; conditions: probe 1419821_s_at, 0.02% in diet, 12 weeks
Method: (§1) Type II diabetic female db/db mice and non-diabetic db/m were purchased from Clea Japan, Inc. Mice were bred under the conditions with a 12 hours light-dark cycle at a temperature of 21° C. to 25° C. For acclimation, mice were fed CE-2 (Clea Japan, Inc.) with free access to water for one week. The mice were divided into three groups each consisting of 8 mice (non-diabetic db/m, diabetic db/db, and astaxanthin-administered db/db) and each group was bred with feed ad libitum. Mice in astaxanthin-administered group were fed a diet in which 0.02% astaxanthin in terms of free astaxanthin was compounded with CE-2. Each group was bred for 12 weeks, and body weight, blood glucose levels, 8-OHdG levels in urine, albumin levels in urine, and kidney histopathology, were measured. Astaxanthin used here was AstaReal (registered trademark, Fuji Chemical Industry Co., Ltd.) 50F, which is oil composed of astaxanthin fatty acid ester and triglycerides and contains 5% astaxanthin in terms of free astaxanthin.
(§2) After the period of test breeding, kidney was removed and frozen at −80° C. Using an LM200 system (Olympus Corporation), the renal glomerulus was cut from kidney of mice while keeping low temperature. tRNA of renal glomerulus was extracted using tRNA extraction regent “Isogen” (produced by Nippon Gene Co., Ltd.), and then preparation of cRNA and hybridization were performed according to the Affymetrix GeneChip Eukaryotic Small Sample Target Labeling Assay Ver. II.
(§3) (1) Synthesis of first strand cDNA: 1 μL of total RNA solution and 1 of 5 μM T7-Oligo(dT) primer were mixed, heated at 70° C. for 6 minutes, and then cooled at 4° C. for 2 minutes. 3 μL of RT_Premix_1 (1.5 μL DEPC-treated water, 4 μL 5× First strand Buffer, 2 μL DTT (0.1 M), 1.5 μL dNTP Mix (10 mM), 1 μL RNase inhibitor (40 U/μL), and 2 μL Super-Script II (200 U/μL)) was added and reverse transcribed at 42° C. for 1 hour. The sample was heated at 70° C. for 10 minutes to inactivate Super Script II, and then cooled to 4° C. (2) Synthesis of second strand cDNA: 32.5 μl of SS_Premix_1 (91 μL DEPC-treated water, 30 μL 5× Second Strand Buffer, 3 μL dNTP (10 mM), 1 μL E. coli DNA ligase (10 U/μL); 4 μL E. coli DNA polymerase (10 U/μL), and 1 μL RNase H (2 U/μL)) was added to the first strand cDNA solution and allowed to react for 2 hours at 16° C. (3) To the resulting cDNA, was added 1 μL T4 DNA polymerase (5 U/μl) and allowed to react for 10 minutes at 16° C., and purified by ethanol precipitation. (4) In vitro transcription: To the dried double-stranded cDNA pellet, was added 10 μL of reagents (4 μL DEPC-treated water, 4 μL premixed NTPs, 1 μL 10× reaction buffer, and 1 μL 10× enzyme mix), and allowed to react at 37° C. in a water bath for 6 hours. (5) First cycle cRNA was purified using the RNeasy Mini Kit in accordance with the protocol in the handbook (QIAGEN). (6) Subsequently, for the amplification and labeling, the cRNA sample was mixed with random primers (0.2 μg/μL), treated at 70° C. for 10 minutes, cooled on ice for 2 minutes, 5 μL of RT_Premix_2 (5× First Strand Buffer, DTT (0.1 M), dNTP mix (10 mM), RNase inhibitor (40 U/μL), and SuperScript II (200 U/μL) was added, and allowed to react at 42° C. for 1 hour. (7) Next, Second Sstrand cDNA synthesis was carried out by adding 5 μM T7-Oligo(dT) promoter treating at 70° C. for 6 minutes, cooling at 4° C., and adding 62 μL of SS_Premix_2 (43 μL it DEPC-treated water, 15 μL 5× Second Strand Buffer, 1.5 μL dNTP mix (10 mM), and 2 μL E. coli DNA polymerase (10 U/μL)). (8) To the resulting cDNA, was treated added 1 μL of T4 DNA polymerase (5 U/μL), allowed to react at 16° C. for 10 minutes, and purified by ethanol precipitation. […]

peroxiredoxin 1 = conditions: probe 1436691_x_at, 0.02% in diet, 12 weeks
Method: as §1, §2, §3

[2] = system: collagen, type XXV, alpha 1; conditions: probe 1438655_a_at, 0.02% in diet, 12 weeks
Method: as §1, §2, §3

[3] = system: macrophage scavenger receptor 1; conditions: probe 1448061_at, 0.02% in diet, 12 weeks
Method: as §1, §2, §3

septin 7 = conditions: probe 1454610_at, 0.02% in diet, 12 weeks
Method: as §1, §2, §3

[4] = system: C1q and tumor necrosis factor related protein 5; conditions: probe 1424762_at, 0.02% in diet, 12 weeks
Method: as §1, §2, §3

[5] = system: procollagen, type IV, alpha 5; conditions: probe 1425476_at, 0.02% in diet, 12 weeks
Method: as §1, §2, §3

C1q related factor = conditions: probe 1422777_at, 0.02% in diet, 12 weeks
Method: as §1, §2, §3

[6] = system: insulin like growth factor 2 receptor; conditions: probe 1424111_at, 0.02% in diet, 12 weeks
Method: as §1, §2, §3

[7] = system: matrix metalloproteinase 8; conditions: probe 1449366_at, 0.02% in diet, 12 weeks
Method: as §1, §2, §3

fibrosin 1 = conditions: probe 1433816_at, 0.02% in diet, 12 weeks
Method: as §1, §2, §3

ring finger protein 128 = conditions: probe 1449036_at, 0.02% in diet, 12 weeks
Method: as §1, §2, §3

[8] = system: MAD homolog 4 (Dorosophia); conditions: probe 1422486_a_at, 0.02% in diet, 12 weeks
Method: as §1, §2, §3

CC1=C(/C=C/C(C)=C/C=C/C(C)=C/C=C/C=C(C)/C=C/C=C(C)/C=C/C2=C(C)C(=O)C(O)CC2(C)C)C(C)(C)CC(O)C1=O (stereo not drawn) [astaxanthin, 3,3′-dihydroxy-β,β-carotene-4,4′-dione]
gene expression relative ratio db/db(Ax):db/db [1]: 0.33
gene expression relative ratio db/db(Ax):db/m [1]: 6.96
gene expression relative ratio db/db(Ax):db/db (peroxiredoxin 1): 0.14
gene expression relative ratio db/db(Ax):db/m (peroxiredoxin 1): 9.19
gene expression intensity ratio db/db(Ax):db/db [2]: 0.19
gene expression intensity ratio db/db(Ax):db/m [2]: 0.87
gene expression intensity ratio db/db(Ax):db/db [3]: 0.25
gene expression intensity ratio db/db(Ax):db/m [3]: 1.32
gene expression relative ratio db/db(Ax):db/db (septin 7): 0.76
gene expression relative ratio db/db(Ax):db/m (septin 7): 36.76
gene expression intensity ratio db/db(Ax):db/db [4]: 2.00
gene expression intensity ratio db/db(Ax):db/m [4]: 1.23
gene expression intensity ratio db/db(Ax):db/db [5]: 0.50
gene expression intensity ratio db/db(Ax):db/m [5]: 2.00
gene expression intensity ratio db/db(Ax):db/db (C1q related factor): 1.32
gene expression intensity ratio db/db(Ax):db/m (C1q related factor): 0.71
gene expression intensity ratio db/db(Ax):db/db [6]: 0.87
gene expression intensity ratio db/db(Ax):db/m [6]: 11.31
gene expression intensity ratio db/db(Ax):db/db [7]: 2.00
gene expression intensity ratio db/db(Ax):db/m [7]: 0.62
gene expression relative ratio db/db(Ax):db/db (fibrosin 1): 0.31
gene expression relative ratio db/db(Ax):db/m (fibrosin 1): 8
gene expression relative ratio db/db(Ax):db/db (ring finger protein 128): 0.1
gene expression relative ratio db/db(Ax):db/m (ring finger protein 128): 1.62
gene expression relative ratio db/db(Ax):db/db [8]: 1.00
gene expression relative ratio db/db(Ax):db/m [8]: 27.86
